Bridge positions count the residues as written; N and C are the ends. Square brackets hold non-standard residues; d marks the D form. Peptide text beside a SMILES is read from it. * marks the point of attachment. X10 = C[N+](C)(CCNC(=O)CCOCCOCCOCCOCCOCCOCCOCCOCCNC(=O)CN1CCN(CC(=O)O)CCN(CC(=O)O)CCN(CC(=O)O)CC1)CC(=O)*; DOTA = O=C(O)CN1CCN(CC(=O)O)CCN(CC(=O)*)CCN(CC(=O)O)CC1; Trp(5-OMe) = COc1ccc2[nH]cc(C[C@H](N)C(=O)O)c2c1; Trp(7-OMe) = COc1cccc2c(C[C@H](N)C(=O)O)c[nH]c12; Trp(5-F) = N[C@@H](Cc1c[nH]c2ccc(F)cc12)C(=O)O; Trp(7-aza) = N[C@@H](Cc1c[nH]c2ncccc12)C(=O)O; Pro(trans-4-F) = O=C(O)[C@@H]1C[C@@H](F)CN1; Phe(4-F) = N[C@@H](Cc1ccc(F)cc1)C(=O)O; 2Nal = N[C@@H](Cc1ccc2ccccc2c1)C(=O)O; Nva(3-Et) = CCC(CC)[C@H](N)C(=O)O; Palmitoyl = CCCCCCCCCCCCCCCC(=O)*; αMeP = C[C@@]1(C(=O)O)CCCN1; Nle = CCCC[C@H](N)C(=O)O; Aze = O=C(O)[C@@H]1CCN1; Sar = CNCC(=O)O

The target in the first assay is T1, human DLL3 (Homo sapiens, UniProt Q9NYJ7).
T1 sequence (Q9NYJ7 27-618): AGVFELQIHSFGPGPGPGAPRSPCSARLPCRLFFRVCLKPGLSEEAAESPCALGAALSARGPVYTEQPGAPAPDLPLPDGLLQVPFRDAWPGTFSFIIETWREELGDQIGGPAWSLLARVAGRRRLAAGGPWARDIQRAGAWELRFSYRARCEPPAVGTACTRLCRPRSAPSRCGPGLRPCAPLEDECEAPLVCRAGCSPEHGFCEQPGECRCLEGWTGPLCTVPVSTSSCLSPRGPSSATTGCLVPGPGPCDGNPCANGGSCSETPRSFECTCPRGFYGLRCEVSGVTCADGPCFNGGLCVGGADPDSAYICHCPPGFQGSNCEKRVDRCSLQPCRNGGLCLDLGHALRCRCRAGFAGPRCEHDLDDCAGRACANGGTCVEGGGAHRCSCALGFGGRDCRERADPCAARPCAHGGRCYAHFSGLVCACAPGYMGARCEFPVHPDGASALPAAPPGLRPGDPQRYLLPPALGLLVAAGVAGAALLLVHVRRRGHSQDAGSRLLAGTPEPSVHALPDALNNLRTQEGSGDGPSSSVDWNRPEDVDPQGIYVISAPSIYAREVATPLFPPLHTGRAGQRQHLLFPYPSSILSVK
Nature of the assay: Affinity determination by Surface Plasmon Resonance (SPR). The format is binding.
Settings: not given
The method in brief:
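Kinetic and affinity constants were derived by fitting sensorgrams to a 1:1 binding model. Graded compound concentrations flowed at 100 μL/minute in 20 mM phosphate running buffer with 2% DMSO over streptavidin-immobilized biotinylated human DLL3, reference-subtracted.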
In turn, `CC[C@H](C)[C@H](NC(=O)[C@@H](NC(=O)[C@H](Cc1c[nH]c2ccccc12)NC(C)=O)[C@@H](C)O)C(=O)N[C@H]1CSSC[C@@H](C(=O)N[C@@H](Cc2c[nH]c3ccccc23)C(=O)N2CCC[C@H]2C(=O)N[C@H](CCCCNC(=O)C[N+](C)(C)CCNC(=O)CCOCCOCCOCCOCCOCCOCCOCCOCCNC(=O)CN2CCN(CC(=O)O)CCN(CC(=O)O)CCN(CC(=O)O)CC2)C(N)=O)NC(=O)[C@H](CC(=O)O)NC(=O)[C@H](Cc2c[nH]cn2)NC(=O)[C@H](Cc2ccc3ccccc3c2)NC(=O)[C@H](CC(N)=O)NC(=O)[C@H](CC(N)=O)NC1=O` [compound 363, Ac-W-T-I-C(3)-N-N-(2Nal)-H-D-C(3)-W-P-[D-Lys(SP6-PEG8-DOTA)]-NH2] (Ac-WTICNN[2Nal]HDCWP[dK](X10)-NH2; disulfide 4-10) returned a Kd of less than 1 nM.

Still in this assay, the particulars now being: 25° C., biotinylated human DLL3 immobilized on streptavidin sensor chip, 1:1 binding model; read-out: SPR KD.
For the molecule “Ac-W-T-I-C(3)-N-N-(2Nal)-(4Pya)-D-C(3)-W-P-[D-Lys(DOTA)]-NH2 [compound 367]”, the Kd is less than 1 nM.
For the molecule `CC[C@H](C)[C@H](NC(=O)[C@@H](NC(=O)[C@H](Cc1c[nH]c2ccccc12)NC(C)=O)[C@@H](C)O)C(=O)N[C@H]1CSSC[C@@H](C(=O)N[C@@H](Cc2c[nH]c3ccc(OC)cc23)C(=O)N2CCC[C@H]2C(=O)N[C@H](CCCCNC(=O)CN2CCN(CC(=O)O)CCN(CC(=O)O)CCN(CC(=O)O)CC2)C(N)=O)NC(=O)[C@H](CC(=O)O)NC(=O)[C@H](Cc2cnc[nH]2)NC(=O)[C@H](Cc2c[nH]c3ccccc23)NC(=O)[C@H](CC(N)=O)NC(=O)[C@H](CC(N)=O)NC1=O` [compound 88, Ac-W-T-I-C(3)-N-N-W-H-D-C(3)-(5Ome-W)-P-[D-Lys(DOTA)]-NH2] (Ac-WTICNNWHDC[Trp(5-OMe)]P[dK](DOTA)-NH2; disulfide 4-10), the Kd fell in the range of 100 to 300 nM.
As for `CC[C@H](C)[C@H](NC(=O)[C@@H](NC(=O)[C@H](Cc1c[nH]c2ccccc12)NC(C)=O)[C@@H](C)O)C(=O)N[C@H]1CSSC[C@@H](C(=O)N[C@@H](Cc2c[nH]c3ccccc23)C(=O)N2CCC[C@H]2C(=O)N[C@H](CCCCNC(=O)CN2CCN(CC(=O)O)CCN(CC(=O)O)CCN(CC(=O)O)CC2)C(N)=O)NC(=O)[C@H](CC(=O)O)NC(=O)[C@H](Cc2cnc[nH]2)NC(=O)[C@H](Cc2c[nH]c3ccccc23)NC(=O)[C@H](CCC(=O)O)NC(=O)[C@H](CCC(=O)O)NC1=O` [compound 278, Ac-W-T-I-C(3)-Glu-Glu-W-H-D-C(3)-W-P-[D-Lys(DOTA)]-NH2] (Ac-WTICEEWHDCWP[dK](DOTA)-NH2; disulfide 4-10), the Kd lay in the range of 1 to 10 nM.
On the same count and under the same terms, in the case of `CCCC[C@H](NC(=O)[C@@H](NC(=O)[C@H](Cc1c[nH]c2ccc(F)cc12)NC(C)=O)[C@@H](C)O)C(=O)N[C@H]1CSSC[C@@H](C(=O)N[C@@H](Cc2c[nH]c3ncccc23)C(=O)N2C[C@H](F)C[C@H]2C(=O)N[C@H](CCCCNC(=O)CN2CCN(CC(=O)O)CCN(CC(=O)O)CCN(CC(=O)O)CC2)C(N)=O)NC(=O)[C@H](CC(=O)O)NC(=O)[C@H](Cc2c[nH]cn2)NC(=O)[C@H](Cc2ccc3ccccc3c2)NC(=O)[C@H](CC(N)=O)NC(=O)[C@H](CC(N)=O)NC1=O` [compound 244, Ac-(5Fluoro-W)-T-(Nle)-C(3)-N-N-(2Nal)-H-D-C(3)-(7Aza-W)-(trans4Fluoro-P)-[D-Lys(DOTA)]-NH2] (Ac-[Trp(5-F)]T[Nle]CNN[2Nal]HDC[Trp(7-aza)][Pro(trans-4-F)][dK](DOTA)-NH2; disulfide 4-10) it was less than 1 nM; in that of `CC[C@H](C)[C@H](NC(=O)[C@@H](NC(=O)[C@H](Cc1c[nH]c2ccccc12)NC(C)=O)[C@@H](C)O)C(=O)N[C@H]1CSSC[C@@H](C(=O)N[C@@H](Cc2c[nH]c3ccccc23)C(=O)N2CCC[C@@]2(C)C(=O)N[C@H](CCCCNC(=O)CN2CCN(CC(=O)O)CCN(CC(=O)O)CCN(CC(=O)O)CC2)C(N)=O)NC(=O)[C@H](CC(=O)O)NC(=O)[C@H](Cc2c[nH]cn2)NC(=O)[C@H](Cc2c[nH]c3ccccc23)NC(=O)[C@H](CC(N)=O)NC(=O)[C@H](CC(N)=O)NC1=O` [compound 105, Ac-W-T-I-C(3)-N-N-W-H-D-C(3)-W-(aMe-P)-[D-Lys(DOTA)]-NH2] (Ac-WTICNNWHDCW[αMeP][dK](DOTA)-NH2; disulfide 4-10), 1 to 10 nM; in that of `CCC(CC)[C@H](NC(=O)[C@@H](NC(=O)[C@H](Cc1c[nH]c2ccc(F)cc12)NC(C)=O)[C@@H](C)O)C(=O)N[C@H]1CSSC[C@@H](C(=O)N[C@@H](Cc2c[nH]c3ncccc23)C(=O)N2C[C@H](F)C[C@H]2C(=O)N[C@H](CCCCNC(=O)CN2CCN(CC(=O)O)CCN(CC(=O)O)CCN(CC(=O)O)CC2)C(N)=O)NC(=O)[C@H](CC(=O)O)NC(=O)[C@H](Cc2c[nH]cn2)NC(=O)[C@H](Cc2ccc(F)cc2)NC(=O)[C@H](CC(N)=O)NC(=O)[C@H](CC(N)=O)NC1=O` [compound 130, Ac-(5Fluoro-W)-T-(Env)-C(3)-N-N-(4Fluoro-F)-H-D-C(3)-(7Aza-W)-(trans4Fluoro-P)-[D-Lys(DOTA)]-NH2] (Ac-[Trp(5-F)]T[Nva(3-Et)]CNN[Phe(4-F)]HDC[Trp(7-aza)][Pro(trans-4-F)][dK](DOTA)-NH2; disulfide 4-10), 1 to 10 nM.
On to `CC[C@H](C)[C@H](NC(=O)[C@@H](NC(=O)[C@H](Cc1c[nH]c2ccccc12)NC(C)=O)[C@@H](C)O)C(=O)N[C@H]1CSSC[C@@H](C(=O)N[C@@H](Cc2c[nH]c3ccccc23)C(=O)N2CCC[C@H]2C(=O)N[C@H](CCCCNC(=O)CN2CCN(CC(=O)O)CCN(CC(=O)O)CCN(CC(=O)O)CC2)C(N)=O)NC(=O)[C@H](CC(=O)O)NC(=O)[C@H](Cc2cnc[nH]2)NC(=O)[C@H](Cc2ccc3ccccc3c2)NC(=O)[C@H](CC(N)=O)NC(=O)[C@H](CO)NC1=O` [compound 208, Ac-W-T-I-C(3)-(Ser)-N-(2Nal)-H-D-C(3)-W-P-[D-Lys(DOTA)]-NH2] (Ac-WTICSN[2Nal]HDCWP[dK](DOTA)-NH2; disulfide 4-10), for which the Kd is less than 1 nM.
On to `CC[C@H](C)[C@H](NC(=O)[C@@H](NC(=O)[C@H](Cc1c[nH]c2ccccc12)NC(C)=O)[C@@H](C)O)C(=O)N[C@H]1CSSC[C@@H](C(=O)N[C@@H](Cc2c[nH]c3ccccc23)C(=O)N2CC[C@H]2C(=O)N[C@H](CCCCNC(=O)CN2CCN(CC(=O)O)CCN(CC(=O)O)CCN(CC(=O)O)CC2)C(N)=O)NC(=O)[C@H](CC(=O)O)NC(=O)[C@H](Cc2cnc[nH]2)NC(=O)[C@H](Cc2c[nH]c3ccccc23)NC(=O)[C@H](CC(N)=O)NC(=O)[C@H](CC(N)=O)NC1=O` [compound 228, Ac-W-T-I-C(3)-N-N-W-H-D-C(3)-W-Aze-[D-Lys(DOTA)]-NH2] (Ac-WTICNNWHDCW[Aze][dK](DOTA)-NH2; disulfide 4-10), for which the Kd was in the range of 1 to 10 nM.
Still for that read-out and setting: in the case of `CC[C@H](C)[C@H](NC(=O)[C@@H](NC(=O)[C@H](Cc1c[nH]c2ccccc12)NC(C)=O)[C@@H](C)O)C(=O)N[C@H]1CSSC[C@@H](C(=O)N[C@@H](Cc2c[nH]c3ccccc23)C(=O)N(C)CC(=O)N[C@H](CCCCNC(=O)CN2CCN(CC(=O)O)CCN(CC(=O)O)CCN(CC(=O)O)CC2)C(N)=O)NC(=O)[C@H](CC(=O)O)NC(=O)[C@H](Cc2cnc[nH]2)NC(=O)[C@H](Cc2c[nH]c3ccccc23)NC(=O)[C@H](CC(N)=O)NC(=O)[C@H](CC(N)=O)NC1=O` [compound 227, Ac-W-T-I-C(3)-N-N-W-H-D-C(3)-W-Sar-[D-Lys(DOTA)]-NH2] (Ac-WTICNNWHDCW[Sar][dK](DOTA)-NH2; disulfide 4-10) it was 1 to 10 nM.
`CCCCCCCCCCCCCCCC(=O)NCCCC[C@H](NC(=O)[C@@H](NC(=O)[C@H](Cc1c[nH]c2ccccc12)NC(C)=O)[C@@H](C)O)C(=O)N[C@H]1CSSC[C@@H](C(=O)N[C@@H](Cc2c[nH]c3ccccc23)C(=O)N2CCC[C@H]2C(=O)N[C@H](CCCCNC(=O)CN2CCN(CC(=O)O)CCN(CC(=O)O)CCN(CC(=O)O)CC2)C(N)=O)NC(=O)[C@H](CC(=O)O)NC(=O)[C@H](Cc2cnc[nH]2)NC(=O)[C@H](Cc2c[nH]c3ccccc23)NC(=O)[C@H](CC(N)=O)NC(=O)[C@H](CC(N)=O)NC1=O` [compound 348, Ac-W-T-K(C16)-C(3)-N-N-W-H-D-C(3)-W-P-[D-Lys(DOTA)]-NH2] (Ac-WTK(Palmitoyl)CNNWHDCWP[dK](DOTA)-NH2; disulfide 4-10): the Kd lay within 100 to 300 nM.
With `CC[C@H](C)[C@H](NC(=O)[C@@H](NC(=O)[C@H](Cc1c[nH]c2c(OC)cccc12)NC(C)=O)[C@@H](C)O)C(=O)N[C@H]1CSSC[C@@H](C(=O)N[C@@H](Cc2c[nH]c3ccccc23)C(=O)N2CCC[C@H]2C(=O)N[C@H](CCCCNC(=O)CN2CCN(CC(=O)O)CCN(CC(=O)O)CCN(CC(=O)O)CC2)C(N)=O)NC(=O)[C@H](CC(=O)O)NC(=O)[C@H](Cc2cnc[nH]2)NC(=O)[C@H](Cc2ccc3ccccc3c2)NC(=O)[C@H](CC(N)=O)NC(=O)[C@H](CC(N)=O)NC1=O` [compound 344, Ac-(7MeO-Trp)-T-I-C(3)-N-N-W-H-D-C(3)-W-P-[D-Lys(DOTA)]-CONH2] (Ac-[Trp(7-OMe)]TICNN[2Nal]HDCWP[dK](DOTA)-NH2; disulfide 4-10), the Kd is less than 1 nM.

The record behind these values is patent US20250011368A1, “DLL3 TARGETING PEPTIDES AND CONSTRUCTS THEREOF” (MARIANA ONCOLOGY INC., priority 2023, published 2025).
